This passage reports inhibition and IC50 results from ChEMBL document CHEMBL2029321, “Identification of chalcones as potent and selective PDE5A1 inhibitors” (Bioorg Med Chem Lett, 2012).

Molecules are shown by their SMILES.

The target in assay [1] is cGMP-specific 3',5'-cyclic phosphodiesterase (Homo sapiens) (UniProt O76074). In words: Inhibition of PDE5A1 at 10 ug/mL.
Assay [2] can be described thus: Inhibition of rabbit corpus cavernosum PDE6. Also noted: species or system Oryctolagus cuniculus.
For another assay, the target named is Phosphodiesterase 4 (Homo sapiens, UniProt P27815+Q08499+Q07343+Q08493). As to the kind of experiment: Inhibition of human neutrophil PDE4. Format: protein assay.
In assay [3] the target is cGMP-specific 3',5'-cyclic phosphodiesterase (Bos taurus, UniProt Q28156). As to the kind of experiment: Inhibition of bovine platelet PDE5.

In the case of `COc1ccc(C(=O)/C=C/c2cccc(OC)c2OC)c(OC)c1`, the inhibition (in general, the drop in the measured response relative to a control, in per cent) in assay [1] was determined as 46.7%.

In the case of `COc1ccc(/C=C/C(=O)c2c3c(c(OC)c4c2OCO4)CN(C)CC3)c(OC)c1OC`, the inhibition in assay [1] is 37.1%.

In assay [1], `COc1ccc(/C=C/C(=O)c2cc(Cl)ccc2OC)cc1OC` had an inhibition of 3.5%.

As for `COc1ccc(/C=C/C(=O)c2c(O)cc(OC)c(OC)c2OC)c(OC)c1`, in assay [1], the inhibition stood at 35.7%.

In turn, `COc1cc(CCNC(C)=O)c(C(=O)/C=C/c2cccc(OC)c2OC)cc1OC` came in with an inhibition in assay [1] of 27.7%.

As to `COc1ccc(OC)c(C(=O)/C=C/c2cc(OC)c(C)cc2OC)c1`, the inhibition in assay [1] is 24.9%.

For `COC(=O)C[N+]1(C)CCc2c(c(OC)c3c(c2C(=O)/C=C/c2ccc(OC)cc2OC)OCO3)C1` (configuration not stated), the inhibition in assay [1] was found to be 18.3%.

Turning to `COc1ccc(C(=O)/C=C/c2cc(Cl)ccc2Cl)c(OC)c1`, the inhibition in assay [1] came to 39.5%.

Turning to `COc1ccc(C2CNC(=O)C2)cc1OC1CCCC1` (configuration not stated) [ROLIPRAM], the IC50 – broadly, the concentration needed to halve the response being measured – in assay [2] is over 10 µM.

With `COc1ccc(OC)c(/C=C/C(=O)c2ccc(OC)c(OC)c2)c1`, the inhibition in assay [1] worked out at 47.3%.

`COc1ccc(/C=C/C(=O)c2cc(OC)c(OC)cc2CCNC(C)=O)c(OC)c1` registered an inhibition in assay [1] of 45.5%.

With `COc1ccc(OC)c(/C=C/C(=O)c2ccc(Cl)cc2)c1`, in assay [1], the inhibition worked out at 8.1%.

Consider `COc1c2c(c(C(=O)/C=C/c3ccc(Cl)cc3Cl)c3c1OCO3)CCN(C)C2`, for which the inhibition in assay [1] was determined as 8.17%.

Take `COc1cccc(/C=C/C(=O)c2c3c(c(OC)c4c2OCO4)CN(C)CC3)c1`: the inhibition in assay [1] came to 64.8%. The IC50 against Phosphodiesterase 4 is over 10 µM; in assay [3], 6.2 µM; in assay [2] it was over 10 µM.

Compound `COc1ccccc1/C=C/C(=O)c1cc(OC)c(OC)cc1CCNC(C)=O` showed an inhibition in assay [1] of 19.9%.

Regarding `CCCOc1ccccc1-c1nc2[nH]nnc2c(=O)[nH]1` [ZAPRINAST], the 50% inhibitory concentration (IC50) in assay [2] came out at 0.4 µM.

For the compound `COc1ccc(OC)c(/C=C/C(=O)c2ccc(SC)cc2)c1`, in assay [1], the inhibition amounted to 26.6%.

`COc1ccc(/C=C/C(=O)c2c3c(c(OC)c4c2OCO4)CN(C)CC3)cc1` gave an inhibition in assay [1] of 31.8%.

As to `COc1ccc(C(=O)/C=C/c2ccccc2OC)c(OC)c1`, the inhibition in assay [1] is 43.1%.

As to `COc1ccc(/C=C/C(=O)c2cc(OC)ccc2OC)cc1`, the inhibition in assay [1] came out at 25.6%.

In assay [1], `COc1cccc(/C=C/C(=O)c2c3c(c(OC)c4c2OCO4)CN(C)CC3)c1OC` had an inhibition of 43.9%.

As to `COc1ccc(C(=O)/C=C/c2ccc(OC)c(OC)c2)c(O)c1`, the inhibition in assay [1] was found to be 23.8%.

In turn, `COc1ccc(OC)c(/C=C/C(=O)c2ccc(OC)cc2OC)c1` displayed an inhibition in assay [1] of 58.7%. The half-maximal inhibitory concentration (IC50) at Phosphodiesterase 4 is 4.9 µM; in assay [3] it was 6 µM; in assay [2] it was over 10 µM.

`COc1ccc(/C=C/C(=O)c2c(OCc3ccccc3)cc(OC)c(OC)c2OC)cc1OC`: the inhibition in assay [1] came to 77.7%. Further, the half-inhibitory concentration (IC50) was 2.3 µM at Phosphodiesterase 4, 5.9 µM in assay [3] and over 10 µM in assay [2].

`COc1ccc(OC)c(/C=C/C(=O)c2cc(OC)c(C)cc2OC)c1` returned an inhibition in assay [1] of 20.2%.

Take `COc1ccc(OC)c(/C=C/C(=O)c2cc(OC)c(OC)cc2CCNC(C)=O)c1`: the inhibition in assay [1] was 47.4%.

In assay [1], `COc1ccc(C(=O)/C=C/c2cc(OC)c(OC)cc2OC)c(OC)c1` showed an inhibition of 65.9%. The half-maximal inhibitory concentration (IC50) at Phosphodiesterase 4 was over 10 µM; in assay [3], 1.8 µM; in assay [2] it was over 10 µM.

In assay [1], `COC(=O)C[N+]1(C)CCc2c(cc3c(c2C(=O)/C=C/c2cc(OC)ccc2OC)OCO3)C1` (configuration not stated) registered an inhibition of 7.2%.

For the compound `COc1ccc(OC)c(C(=O)/C=C/c2ccc(OC)c(OC)c2)c1`, the inhibition in assay [1] turned out to be 66.1%. The half-inhibitory concentration (IC50) is 8.2 µM against Phosphodiesterase 4, 7 µM in assay [3] and over 10 µM in assay [2].

In assay [2], `CCCc1nn(C)c2c(=O)[nH]c(-c3cc(S(=O)(=O)N4CCN(C)CC4)ccc3OCC)nc12` gave a half-inhibitory concentration (IC50) of 0.1 µM. This counts as sub-micromolar.

Compound `COc1ccc(/C=C/C(=O)c2c3c(c(OC)c4c2OCO4)CN(C)CC3)c(OC)c1` came in with an inhibition in assay [1] of 35.1%.

Consider `COc1ccc(OC)c(/C=C/C(=O)c2c3c(c(OC)c4c2OCO4)CN(C)CC3)c1`, for which, in assay [1], the inhibition worked out at 45.5%.
